{"source": "patent US20240366775A1", "about": "“HUMAN TRANSFERRIN RECEPTOR BINDING ANTIBODY-PEPTIDE CONJUGATE” (PEPTIDREAM INC., priority 2021, published 2024)", "molecular_target": "human transferrin receptor (hTfR) (Homo sapiens, UniProt P02786)", "sequence (P02786 whole entry)": "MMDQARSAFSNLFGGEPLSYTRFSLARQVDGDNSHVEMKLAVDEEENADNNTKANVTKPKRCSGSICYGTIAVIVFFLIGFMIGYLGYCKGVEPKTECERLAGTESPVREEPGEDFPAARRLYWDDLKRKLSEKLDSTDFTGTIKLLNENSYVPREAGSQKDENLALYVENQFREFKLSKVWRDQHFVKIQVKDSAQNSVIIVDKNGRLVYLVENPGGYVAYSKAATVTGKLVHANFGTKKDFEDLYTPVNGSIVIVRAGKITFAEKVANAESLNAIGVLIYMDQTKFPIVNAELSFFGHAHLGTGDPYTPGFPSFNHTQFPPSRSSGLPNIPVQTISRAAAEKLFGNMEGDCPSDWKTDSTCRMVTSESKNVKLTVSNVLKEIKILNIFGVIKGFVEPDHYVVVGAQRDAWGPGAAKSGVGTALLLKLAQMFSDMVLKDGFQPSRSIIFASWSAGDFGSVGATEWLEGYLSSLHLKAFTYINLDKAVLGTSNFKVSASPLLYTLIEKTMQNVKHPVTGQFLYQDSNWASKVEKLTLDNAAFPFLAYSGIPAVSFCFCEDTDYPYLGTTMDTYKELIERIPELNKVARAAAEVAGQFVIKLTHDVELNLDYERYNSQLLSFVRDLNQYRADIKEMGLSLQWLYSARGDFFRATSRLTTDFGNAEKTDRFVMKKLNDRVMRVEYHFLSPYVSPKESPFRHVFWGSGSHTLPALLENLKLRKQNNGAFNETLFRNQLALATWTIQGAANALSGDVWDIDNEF", "assay": "SPR measurement of peptide binding to hTfR", "source_text": "Note that ND indicates No Data (here, it means that no data was obtained).", "key": {"[1]": {"settings": "measured on the naked peptide (1st to 15th amino acids, without linker) corresponding to the listed linker-attached peptide, read-out: KD value of binding to hTfR by SPR"}}, "note": "pKd: −log10 of the molar value. Read-outs that look alike come from different tables or passages of the source. Where a SMILES comes first, the peptide text is derived from it. Bridges are numbered along the chain shown (N, C = ends). [ ]: non-standard residue; d: D form. The star is where a group is joined. NMeY = CN[C@@H](Cc1ccc(O)cc1)C(=O)O; NMeF = CN[C@@H](Cc1ccccc1)C(=O)O; OSu = O=C1CCC(=O)N1O*; GABA = NCCCC(=O)O"}
{"molecule": "CC[C@H](C)[C@@H]1NC(=O)[C@H](Cc2ccc(O)cc2)NC(=O)[C@H](Cc2ccc(O)cc2)NC(=O)[C@H](CC(N)=O)NC(=O)[C@H](Cc2c[nH]c3ccccc23)N(C)C(=O)[C@H](C(C)C)NC(=O)[C@H](Cc2ccccc2)N(C)C(=O)[C@H](C(C)C)NC(=O)[C@H](C)NC(=O)CSC[C@@H](C(=O)NCC(=O)NCC(=O)N[C@@H](CO)C(=O)NCC(=O)N[C@@H](CCC(=O)O)C(=O)N[C@@H](CO)C(=O)N[C@@H](CCCCNC(=O)C2CCC(CN3C(=O)C=CC3=O)CC2)C(N)=O)NC(=O)[C@H](Cc2ccc(O)cc2)N(C)C(=O)[C@H](Cc2ccc(O)cc2)NC(=O)[C@H](CCCNC(=N)N)NC(=O)[C@H](CCCNC(=N)N)NC(=O)[C@H]([C@@H](C)CC)NC1=O", "note": "(some centres unmarked) [894_3m_5m_GGSGES_K(Mal)]", "values": [{"measurement": "pKd", "setting": "[1]", "value": "7.00 to 9.00"}]}
{"molecule": "CC[C@H](C)[C@@H]1NC(=O)[C@H](Cc2ccc(O)cc2)NC(=O)[C@H](Cc2ccc(O)cc2)NC(=O)[C@H](CC(N)=O)NC(=O)[C@H](Cc2c[nH]c3ccccc23)NC(=O)[C@H](C(C)C)NC(=O)[C@H](Cc2ccccc2)N(C)C(=O)[C@H](C(C)C)NC(=O)[C@H](C)NC(=O)CSC[C@@H](C(=O)NCC(=O)NCC(=O)NCC(=O)NCC(=O)N[C@@H](CO)C(=O)N[C@@H](CO)C(=O)N[C@@H](CCCCNC(=O)C2CCC(CN3C(=O)C=CC3=O)CC2)C(N)=O)NC(=O)[C@H](Cc2ccc(O)cc2)N(C)C(=O)[C@H](Cc2ccc(O)cc2)NC(=O)[C@H](CCCNC(=N)N)NC(=O)[C@H](CCCNC(=N)N)NC(=O)[C@H]([C@@H](C)CC)NC1=O", "note": "(some centres unmarked) [894_3m_G4S2_K(Mal)]", "values": [{"measurement": "pKd", "value": "7.00 to 9.00"}]}
{"molecule": "CC[C@H](C)[C@@H]1NC(=O)[C@H](Cc2ccc(O)cc2)NC(=O)[C@H](Cc2ccc(O)cc2)NC(=O)[C@H](CC(N)=O)NC(=O)[C@H](Cc2c[nH]c3ccccc23)NC(=O)[C@H](C(C)C)NC(=O)[C@H](Cc2ccccc2)N(C)C(=O)[C@H](C(C)C)NC(=O)[C@H](C)NC(=O)CSC[C@@H](C(=O)NCC(=O)NCC(=O)N[C@@H](CCC(N)=O)C(=O)NCC(=O)N[C@@H](CCC(N)=O)C(=O)N[C@@H](CO)C(=O)NCC(=O)NCC(=O)N[C@@H](CCC(N)=O)C(=O)NCC(=O)N[C@@H](CCC(N)=O)C(=O)N[C@@H](CO)C(=O)NCCCC(=O)ON2C(=O)CCC2=O)NC(=O)[C@H](Cc2ccc(O)cc2)N(C)C(=O)[C@H](Cc2ccc(O)cc2)NC(=O)[C@H](CCCNC(=N)N)NC(=O)[C@H](CCCNC(=N)N)NC(=O)[C@H]([C@@H](C)CC)NC1=O", "note": "[894_3m_GGQGQSx2_gAbu(NHS)] ({CH2CO}-AV[NMeF]VWNYYIIRRY[NMeY]CGGQGQSGGQGQS[GABA]-OSu; thioether N-15)", "values": [{"measurement": "pKd", "setting": "naked peptide (1st to 15th amino acids, without linker part) corresponding to the listed linker-attached peptide, read-out: SPR of naked peptide (KD for binding to hTfR)", "value": "7.00 to 9.00"}]}
{"molecule": "CC[C@H](C)[C@@H]1NC(=O)[C@H](Cc2ccc(O)cc2)NC(=O)[C@H](Cc2ccc(O)cc2)NC(=O)[C@H](CC(N)=O)NC(=O)[C@H](Cc2c[nH]c3ccccc23)NC(=O)[C@H](C(C)C)NC(=O)[C@H](Cc2ccccc2)N(C)C(=O)[C@H](C(C)C)NC(=O)[C@H](C)NC(=O)CSC[C@@H](C(=O)NCC(=O)NCC(=O)N[C@@H](CCCNC(=N)N)C(=O)NCC(=O)N[C@@H](CCCNC(=N)N)C(=O)N[C@@H](CO)C(=O)N[C@@H](CCCCNC(=O)C2CCC(CN3C(=O)C=CC3=O)CC2)C(N)=O)NC(=O)[C@H](Cc2ccc(O)cc2)N(C)C(=O)[C@H](Cc2ccc(O)cc2)NC(=O)[C@H](CCCNC(=N)N)NC(=O)[C@H](CCCNC(=N)N)NC(=O)[C@H]([C@@H](C)CC)NC1=O", "note": "(some centres unmarked) [894_3m_GGRGRS_K(Mal)]", "values": [{"measurement": "pKd", "setting": "[1]", "value": "7.00 to 9.00"}]}
{"molecule": "CC[C@H](C)[C@@H]1NC(=O)[C@H](Cc2ccc(O)cc2)NC(=O)[C@H](Cc2ccc(O)cc2)NC(=O)[C@H](CC(N)=O)NC(=O)[C@H](Cc2c[nH]c3ccccc23)NC(=O)[C@H](C(C)C)NC(=O)[C@H](Cc2ccccc2)N(C)C(=O)[C@H](C(C)C)NC(=O)[C@H](C)NC(=O)CSC[C@@H](C(=O)NCC(=O)NCC(=O)N[C@H](CCC(=O)O)C(=O)NCC(=O)NCC(=O)N[C@H](CCC(=O)O)C(=O)NCC(=O)NCC(=O)N[C@H](CCC(=O)O)C(=O)NCC(=O)NCC(=O)N[C@H](CCCCNC(=O)C2CCC(CN3C(=O)C=CC3=O)CC2)C(N)=O)NC(=O)[C@H](Cc2ccc(O)cc2)N(C)C(=O)[C@H](Cc2ccc(O)cc2)NC(=O)[C@H](CCCNC(=N)N)NC(=O)[C@H](CCCNC(=N)N)NC(=O)[C@H]([C@@H](C)CC)NC1=O", "note": "(some centres unmarked) [894_3m_Linke04_dk(Mal)]", "values": [{"measurement": "pKd", "setting": "[1]", "value": "7.00 to 9.00"}]}
